Legend:
[1] = system: bedstraw; assay: Test B pre/postemergence bedstraw; type: in vivo, Galium aparine
Method in brief: (§1)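 Herbicidal effect was estimated by eye on a ten-point control scale after plants spent twelve to sixteen days in a greenhouse following soil or foliar treatment. Foliar sprays targeted plants at one to four leaves; all doses were formulated in a non-phytotoxic solvent with surfactant.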

[2] = system: blackgrass; assay: Test B pre/postemergence blackgrass; type: in vivo, Alopecurus myosuroides
Method in brief: as §1

[3] = system: surinam grass; assay: Test B pre/postemergence surinam grass; type: in vivo, Brachiaria decumbens
Method in brief: as §1

[4] = system: cocklebur; assay: Test B pre/postemergence cocklebur; type: in vivo, Xanthium strumarium
Method in brief: as §1

[5] = system: corn; assay: Test B pre/postemergence corn; type: in vivo, Zea mays
Method in brief: as §1

[6] = system: crabgrass; assay: Test B pre/postemergence crabgrass; type: in vivo, Digitaria sanguinalis
Method in brief: as §1

[7] = system: giant foxtail; assay: Test B pre/postemergence giant foxtail; type: in vivo, Setaria faberii
Method in brief: as §1

[8] = system: morningglory; assay: Test B pre/postemergence morningglory; type: in vivo, Ipomoea hederacea
Method in brief: as §1

[9] = system: pigweed; assay: Test B pre/postemergence pigweed; type: in vivo, Amaranthus retroflexus
Method in brief: as §1

[10] = system: rape; assay: Test B pre/postemergence rape; type: in vivo, Brassica napus
Method in brief: as §1

[11] = system: soybean; assay: Test B pre/postemergence soybean; type: in vivo, Glycine max
Method in brief: as §1

[12] = system: sugar beet; assay: Test B pre/postemergence sugar beet; type: in vivo, Beta vulgaris; conditions: for Plant response rating, Sugarbeets: Rate 250 g/ha
Method in brief: as §1

[13] = system: velvetleaf; assay: Test B pre/postemergence velvetleaf; type: in vivo, Abutilon theophrasti; conditions: for Plant response rating, Velvetleaf: Rate 250 g/ha
Method in brief: as §1

[14] = system: wheat; assay: Test B pre/postemergence wheat; type: in vivo, Triticum aestivum; conditions: for Plant response rating, Wheat: Rate 250 g/ha
Method in brief: as §1

[15] = system: wild oat; assay: Test B pre/postemergence wild oat; type: in vivo, Avena fatua; conditions: for Plant response rating, Wild oats: Rate 250 g/ha
Method in brief: as §1

[16] = system: purple nutsedge; assay: Test B pre/postemergence purple nutsedge; type: in vivo, Cyperus rotundus
Method in brief: as §1

[17] = Postemergence, Rate 62 g/ha, scale 0 to 10, 0 is no effect, 10 is complete control
[18] = Postemergence, Rate 250 g/ha, scale 0 to 10, 0 no effect, 10 complete control
[19] = Preemergence, Rate 62 g/ha, scale 0 to 10 (0 no effect, 10 complete control)
[20] = Preemergence, Rate 250 g/ha, scale of 0 to 10 where 0 is no effect and 10 is complete control
[21] = Rate 31 g/ha, Postemergence, scale 0 to 10
[22] = Rate 125 g/ha, Postemergence, scale 0 to 10, 0 no effect, 10 complete control
[23] = Postemergence, Rate 125 g/ha, scale of 0 to 10 where 0 is no effect and 10 is complete control
[24] = Preemergence, Rate 31 g/ha, visual rating, scale 0 to 10 (0 no effect, 10 complete control)
[25] = Preemergence, Rate 125 g/ha, scale 0 to 10 (0 no effect, 10 complete control)
[26] = Rate 62 g/ha, Postemergence, scale of 0 to 10 where 0 is no effect and 10 is complete control
[27] = Rate 250 g/ha, Postemergence, scale 0 to 10, 0 is no effect, 10 is complete control
[28] = Preemergence, Rate 125 g/ha, 0 is no effect, 10 is complete control
[29] = Preemergence, scale of 0 to 10 where 0 is no effect and 10 is complete control
[30] = Postemergence, scale 0 to 10, 0 is no effect, 10 is complete control

Cc1onc(-c2ccccc2)c1-n1c(=O)on(C(=O)N(c2ccc(F)cc2)C(C)C)c1=O [Compound 100]
0: Bedstraw plant response rating [1, 17] | Bedstraw plant response rating [1, 18] | Bedstraw plant response rating [1, 19] | Plant response rating, Bedstraw [1, 20] | Bedstraw plant response rating [1, 21] | Bedstraw plant response rating [1, 22] | Blackgrass plant response rating [2, 23] | Blackgrass plant response rating [2, 18] | Blackgrass plant response rating [2, 24] | Blackgrass plant response rating [2, 19] | Plant response rating, Blackgrass [2, 25] | Plant response rating, Blackgrass [2, 20] | Blackgrass plant response rating [2, 21] | Blackgrass plant response rating [2, 26] | B. signalgrass plant response rating [3, 17] | B. signalgrass plant response rating [3, 18] | B. signalgrass plant response rating [3, 24] | B. signalgrass plant response rating [3, 19] | Plant response rating, B. signalgrass [3, 25] | Plant response rating, B. signalgrass [3, 20] | B. signalgrass plant response rating [3, 21] | B. signalgrass plant response rating [3, 22] | Cocklebur plant response rating [4, 23] | Cocklebur plant response rating [4, 18] | Cocklebur plant response rating [4, 24] | Cocklebur plant response rating [4, 19] | Plant response rating, Cocklebur [4, 25] | Plant response rating, Cocklebur [4, 20] | Cocklebur plant response rating [4, 21] | Cocklebur plant response rating [4, 26] | Corn plant response rating [5, 23] | Corn plant response rating [5, 18] | Corn plant response rating [5, 24] | Corn plant response rating [5, 19] | Plant response rating, Corn [5, 25] | Plant response rating, Corn [5, 20] | Corn plant response rating [5, 21] | Corn plant response rating [5, 26] | Crabgrass plant response rating [6, 23] | Crabgrass plant response rating [6, 18] | Crabgrass plant response rating [6, 24] | Crabgrass plant response rating [6, 19] | Plant response rating, Crabgrass [6, 25] | Plant response rating, Crabgrass [6, 20] | Crabgrass plant response rating [6, 21] | Crabgrass plant response rating [6, 26] | Giant foxtail plant response rating [7, 23] | Giant foxtail plant response rating [7, 18] | Giant foxtail plant response rating [7, 24] | Giant foxtail plant response rating [7, 19] | Plant response rating, Giant foxtail [7, 25] | Plant response rating, Giant foxtail [7, 20] | Giant foxtail plant response rating [7, 21] | Giant foxtail plant response rating [7, 26] | Morningglory plant response rating [8, 23] | Morningglory plant response rating [8, 18] | Morningglory plant response rating [8, 24] | Morningglory plant response rating [8, 19] | Plant response rating, Morningglory [8, 25] | Plant response rating, Morningglory [8, 20] | Morningglory plant response rating [8, 21] | Morningglory plant response rating [8, 26] | Redroot pigweed plant response rating [9, 23] | Redroot pigweed plant response rating [9, 24] | Redroot pigweed plant response rating [9, 19] | Plant response rating, Redroot pigweed [9, 25] | Plant response rating, Redroot pigweed [9, 20] | Redroot pigweed plant response rating [9, 21] | Redroot pigweed plant response rating [9, 26] | Plant response rating, Redroot pigweed [9, 27] | Rape plant response rating [10, 23] | Rape plant response rating [10, 18] | Rape plant response rating [10, 24] | Rape plant response rating [10, 19] | Plant response rating, Rape [10, 25] | Plant response rating, Rape [10, 20] | Rape plant response rating [10, 21] | Rape plant response rating [10, 26] | Soybean plant response rating [11, 23] | Soybean plant response rating [11, 24] | Soybean plant response rating [11, 19] | Plant response rating, Soybean [11, 25] | Plant response rating, Soybean [11, 20] | Soybean plant response rating [11, 26] | Plant response rating, Soybean [11, 27] | Sugarbeets plant response rating [12, 23] | Sugarbeets plant response rating [12, 24] | Sugarbeets plant response rating [12, 19] | Sugarbeets plant response rating (0 to 10 scale) [12, 28] | Plant response rating, Sugarbeets [12, 29] | Sugarbeets plant response rating [12, 26] | Plant response rating, Sugarbeets [12, 30] | Velvetleaf plant response rating [13, 23] | Velvetleaf plant response rating [13, 24] | Velvetleaf plant response rating [13, 19] | Velvetleaf plant response rating (0 to 10 scale) [13, 28] | Plant response rating, Velvetleaf [13, 29] | Velvetleaf plant response rating [13, 26] | Plant response rating, Velvetleaf [13, 30] | Wheat plant response rating [14, 23] | Wheat plant response rating [14, 24] | Wheat plant response rating [14, 19] | Wheat plant response rating (0 to 10 scale) [14, 28] | Plant response rating, Wheat [14, 29] | Wheat plant response rating [14, 26] | Plant response rating, Wheat [14, 30] | Wild oats plant response rating [15, 23] | Wild oats plant response rating [15, 24] | Wild oats plant response rating [15, 19] | Wild oats plant response rating (0 to 10 scale) [15, 28] | Plant response rating, Wild oats [15, 29] | Wild oats plant response rating [15, 26] | Plant response rating, Wild oats [15, 30] | Nutsedge plant response rating [16, 23] | Nutsedge plant response rating [16, 18] | Nutsedge plant response rating [16, 24] | Nutsedge plant response rating [16, 19] | Plant response rating, Nutsedge [16, 25] | Plant response rating, Nutsedge [16, 20] | Nutsedge plant response rating [16, 21] | Nutsedge plant response rating [16, 26]
